The values below come from ChEMBL document CHEMBL3632490, “Cytotoxic Barrigenol-like Triterpenoids from an Extract of Cyrilla racemiflora Housed in a Repository” (J Nat Prod, 2015).

One assay relates to HT-29. Description: Cytotoxicity against human HT-29 cells assessed as inhibition of cell viability after 3 days by sulforhodamine B assay. The assay is classed as functional, cell-based. Conditions: HT-29, 72 h. (In general: In SRB staining, fixed cells bind dye roughly in proportion to their protein.)
By IC50 is commonly meant the concentration that gives 50% inhibition. As for `CC1(C)C[C@H]2C3=CC[C@@H]4[C@@]5(C)C=CC(=O)C(C)(C)[C@@H]5CC[C@@]4(C)[C@]3(C)C[C@@H](O)[C@@]2(CO)[C@@H](O)[C@@H]1O`, the IC50 was greater than 10 µM. On the same count and under the same terms, the figure for `C/C=C(/C)C(=O)O[C@@H]1[C@@H](O)[C@H](O[C@H]2CC(C)(C)C[C@H]3C4=CC[C@@H]5[C@@]6(C)C=C[C@H](O)C(C)(C)[C@@H]6CC[C@@]5(C)[C@]4(C)C[C@@H](O)[C@@]23CO)O[C@H](CO)[C@H]1OC(=O)/C(C)=C\C` is greater than 10 µM; for `C/C=C(/C)C(=O)O[C@H]1[C@H](OC(C)=O)[C@]2(CO)[C@H](O)C[C@]3(C)C(=CC[C@@H]4[C@@]5(C)CC[C@H](O)C(C)(C)[C@@H]5CC[C@]43C)[C@@H]2CC1(C)C` it is 7.8 µM.

For the compound `C/C=C(/C)C(=O)O[C@H]1CC(C)(C)C[C@H]2C3=CC[C@@H]4[C@@]5(C)CC[C@H](O)C(C)(C)[C@@H]5CC[C@@]4(C)[C@]3(C)[C@@H](O)[C@@H](O)[C@@]12CO`, the IC50 worked out at 8.7 µM. With `C/C=C(/C)C(=O)O[C@H]1[C@H](O)C(C)(C)C[C@H]2C3=CC[C@@H]4[C@@]5(C)CC[C@H](O)C(C)(C)[C@@H]5CC[C@@]4(C)[C@]3(C)[C@@H](O)[C@@H](O)[C@]21CO`, the IC50 is greater than 10 µM. Same read-out and setting: the result for `C/C=C(/C)C(=O)O[C@H]1[C@H](O)[C@]2(CO)[C@H](O)C[C@]3(C)C(=CC[C@@H]4[C@@]5(C)CC[C@H](O)C(C)(C)[C@@H]5CC[C@]43C)[C@@H]2CC1(C)C` reads 1.7 µM.

Tested on in another assay: not listed separately
Description: Cytotoxicity against human CCD-112CoN cells assessed as inhibition of cell viability after 3 days by sulforhodamine B assay. It is filed as cell-based. The note with it: 72 h.
`C/C=C(/C)C(=O)O[C@H]1[C@H](O)[C@]2(CO)[C@H](O)C[C@]3(C)C(=CC[C@@H]4[C@@]5(C)CC[C@H](O)C(C)(C)[C@@H]5CC[C@]43C)[C@@H]2CC1(C)C`: the IC50 was determined as 5.9 µM. Same read-out and setting: the figure for `CC(=O)O[C@H]1C(=O)[C@@]2(C)[C@H]([C@H](OC(=O)c3ccccc3)[C@]3(O)C[C@H](OC(=O)[C@H](O)[C@@H](NC(=O)c4ccccc4)c4ccccc4)C(C)=C1C3(C)C)[C@]1(OC(C)=O)CO[C@@H]1C[C@@H]2O` [PACLITAXEL] is 19.3 µM.
